# Legend:
# Assay in all cases: relative viability (nuclei count vs DMSO), 5 days (fraction); higher = more cells survive
# NCI-H1734 = tested on: NCI-H1734
# In short: (§1)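 Relative viability divides the nuclei count in treated wells by that in vehicle wells. Lung cancer cell lines were seeded in 1536-well plates, dosed by pin tool the next day, and fixed and stained after 5 days in one step with final 0.05% Triton X-100, 1% formaldehyde and 1 ug/ml Hoechst. Dosing was a single drug or a fixed anchor-drug dose plus five library-drug doses (not always all listed) in √10 steps, and values are medians of duplicate plates imaged at 4×.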
# SW 1573 = tested on: SW 1573
# In short: as §1
# NCI-H1650 = tested on: NCI-H1650
# In short: as §1
# NCI-H2342 = tested on: NCI-H2342
# In short: as §1
# PC-3 [JPC-3] = tested on: PC-3 [JPC-3]
# In short: as §1
# CAL-12T = tested on: CAL-12T
# In short: as §1
# NCI-H661 = tested on: NCI-H661
# In short: as §1
# NCI-H1563 = tested on: NCI-H1563
# In short: as §1
# COR-L23 = tested on: COR-L23
# In short: as §1
# HCC-827 = tested on: HCC-827
# In short: as §1
# LK-2 = tested on: LK-2
# In short: as §1
# NCI-H520 = tested on: NCI-H520
# In short: as §1
# NCI-H2405 = tested on: NCI-H2405
# In short: as §1
# PC-14 = tested on: PC-14
# In short: as §1
# NCI-H1355 = tested on: NCI-H1355
# In short: as §1
# EKVX = tested on: EKVX
# In short: as §1
# RERF-LC-KJ = tested on: RERF-LC-KJ
# In short: as §1
# H3255 = tested on: H3255
# In short: as §1
# NCI-H2228 = tested on: NCI-H2228
# In short: as §1
# NCI-H1437 = tested on: NCI-H1437
# In short: as §1
# HCC-15 = tested on: HCC-15
# In short: as §1
# NCI-H322M = tested on: NCI-H322M
# In short: as §1
smiles,measurement,setting,value
O=C(O)c1ccc(-c2c[nH]c3ncc(-c4ccccc4)cc23)cc1C1CCCC1 + Nc1nc2[nH]cc(CCc3ccc(C(=O)N[C@@H](CCC(=O)O)C(=O)O)cc3)c2c(=O)[nH]1 [Pemetrexed] (partner 0.2 µM),relative viability,NCI-H1734; first compound 0.04 µM,0.413
same,relative viability,NCI-H1734; first compound 0.1265 µM,0.43
same,relative viability,NCI-H1734; first compound 0.4 µM,0.428
same,relative viability,NCI-H1734; first compound 1.265 µM,0.411
same,relative viability,SW 1573; first compound 0.04 µM,0.808
same,relative viability,SW 1573; first compound 0.1265 µM,0.762
same,relative viability,SW 1573; first compound 0.4 µM,0.779
same,relative viability,SW 1573; first compound 1.265 µM,0.63
same,relative viability,NCI-H1650; first compound 0.04 µM,0.352
same,relative viability,NCI-H1650; first compound 0.1265 µM,0.466
same,relative viability,NCI-H1650; first compound 0.4 µM,0.383
same,relative viability,NCI-H1650; first compound 1.265 µM,0.33
same,relative viability,NCI-H2342; first compound 0.04 µM,0.804
same,relative viability,NCI-H2342; first compound 0.1265 µM,0.816
same,relative viability,NCI-H2342; first compound 0.4 µM,0.765
same,relative viability,NCI-H2342; first compound 1.265 µM,0.74
same,relative viability,PC-3 [JPC-3]; first compound 0.04 µM,1.05
same,relative viability,PC-3 [JPC-3]; first compound 0.1265 µM,1.18
same,relative viability,PC-3 [JPC-3]; first compound 0.4 µM,1.1
same,relative viability,PC-3 [JPC-3]; first compound 1.265 µM,1.03
same,relative viability,CAL-12T; first compound 0.04 µM,1.15
same,relative viability,CAL-12T; first compound 0.1265 µM,1.04
same,relative viability,CAL-12T; first compound 0.4 µM,1.1
same,relative viability,CAL-12T; first compound 1.265 µM,1.09
same,relative viability,NCI-H661; first compound 0.04 µM,0.881
same,relative viability,NCI-H661; first compound 0.1265 µM,0.918
same,relative viability,NCI-H661; first compound 0.4 µM,0.92
same,relative viability,NCI-H661; first compound 1.265 µM,0.892
same,relative viability,NCI-H1563; first compound 0.04 µM,0.698
same,relative viability,NCI-H1563; first compound 0.1265 µM,0.948
same,relative viability,NCI-H1563; first compound 0.4 µM,0.789
same,relative viability,NCI-H1563; first compound 1.265 µM,0.892
same,relative viability,COR-L23; first compound 0.04 µM,0.191
same,relative viability,COR-L23; first compound 0.1265 µM,0.196
same,relative viability,COR-L23; first compound 0.4 µM,0.194
same,relative viability,COR-L23; first compound 1.265 µM,0.184
same,relative viability,HCC-827; first compound 0.04 µM,0.198
same,relative viability,HCC-827; first compound 0.1265 µM,0.28
same,relative viability,HCC-827; first compound 0.4 µM,0.287
same,relative viability,HCC-827; first compound 1.265 µM,0.163
same,relative viability,LK-2; first compound 0.04 µM,0.172
same,relative viability,LK-2; first compound 0.1265 µM,0.344
same,relative viability,LK-2; first compound 0.4 µM,0.317
same,relative viability,LK-2; first compound 1.265 µM,0.276
same,relative viability,NCI-H520; first compound 0.04 µM,0.789
same,relative viability,NCI-H520; first compound 0.1265 µM,0.633
same,relative viability,NCI-H520; first compound 0.4 µM,0.655
same,relative viability,NCI-H520; first compound 1.265 µM,0.474
same,relative viability,NCI-H2405; first compound 0.04 µM,1.05
same,relative viability,NCI-H2405; first compound 0.1265 µM,1.15
same,relative viability,NCI-H2405; first compound 0.4 µM,0.959
same,relative viability,NCI-H2405; first compound 1.265 µM,0.648
same,relative viability,PC-14; first compound 0.04 µM,0.135
same,relative viability,PC-14; first compound 0.1265 µM,0.143
same,relative viability,PC-14; first compound 0.4 µM,0.145
same,relative viability,PC-14; first compound 1.265 µM,0.125
same,relative viability,NCI-H1355; first compound 0.04 µM,0.991
same,relative viability,NCI-H1355; first compound 0.1265 µM,1.13
same,relative viability,NCI-H1355; first compound 0.4 µM,1.12
same,relative viability,NCI-H1355; first compound 1.265 µM,0.756
same,relative viability,EKVX; first compound 0.04 µM,0.397
same,relative viability,EKVX; first compound 0.1265 µM,0.576
same,relative viability,EKVX; first compound 0.4 µM,0.376
same,relative viability,EKVX; first compound 1.265 µM,0.409
same,relative viability,RERF-LC-KJ; first compound 0.04 µM,0.466
same,relative viability,RERF-LC-KJ; first compound 0.1265 µM,0.469
same,relative viability,RERF-LC-KJ; first compound 0.4 µM,0.481
same,relative viability,RERF-LC-KJ; first compound 1.265 µM,0.481
same,relative viability,H3255; first compound 0.04 µM,0.485
same,relative viability,H3255; first compound 0.1265 µM,0.58
same,relative viability,H3255; first compound 0.4 µM,0.622
same,relative viability,H3255; first compound 1.265 µM,0.582
same,relative viability,NCI-H2228; first compound 0.04 µM,0.349
same,relative viability,NCI-H2228; first compound 0.1265 µM,0.294
same,relative viability,NCI-H2228; first compound 0.4 µM,0.348
same,relative viability,NCI-H2228; first compound 1.265 µM,0.29
same,relative viability,NCI-H1437; first compound 0.04 µM,0.338
same,relative viability,NCI-H1437; first compound 0.1265 µM,0.33
same,relative viability,NCI-H1437; first compound 0.4 µM,0.311
same,relative viability,NCI-H1437; first compound 1.265 µM,0.295
same,relative viability,HCC-15; first compound 0.04 µM,0.206
same,relative viability,HCC-15; first compound 0.1265 µM,0.227
same,relative viability,HCC-15; first compound 0.4 µM,0.215
same,relative viability,HCC-15; first compound 1.265 µM,0.188
same,relative viability,NCI-H322M; first compound 0.04 µM,0.632
same,relative viability,NCI-H322M; first compound 0.1265 µM,0.586
same,relative viability,NCI-H322M; first compound 0.4 µM,0.589
same,relative viability,NCI-H322M; first compound 1.265 µM,0.547
